In one assay the target is T1, EGFR kinase (Homo sapiens, UniProt P00533).
T1 construct: Recombinant intracellular fragments of EGFR and erbB2; made in house; host or cells: baculovirus/Sf21 insect cells
In words: Protein tyrosine kinase phosphorylation assay, Test (a): EGFR. The assay is classed as biochemical. The note with it: inhibition of phosphorylation of a tyrosine containing polypeptide substrate by EGFR kinase; ATP at Km. How it is done: (§1) This test measures the ability of a test compound to inhibit the phosphorylation of a tyrosine containing polypeptide substrate by an enzyme selected from the EGFR kinase and erbB2 kinase.
(§2) Recombinant intracellular fragments of EGFR and erbB2 (accession numbers X00588 and X03363 respectively) were cloned and expressed in the baculovirus/Sf21 system. Lysates were prepared from these cells by treatment with ice-cold lysis buffer (20 mM N-2-hydroxyethylpiperizine-N′-2-ethanesulfonic acid (HEPES) pH 7.5, 150 mM NaCl, 10% glycerol, 1% Triton X-100, 1.5 mM MgCl2, 1 mM ethylene glycol-bis(β-aminoethyl ether) N′,N′,N′,N′-tetraacetic acid (EGTA), plus protease inhibitors and then cleared by centrifugation.
(§3) Constitutive kinase activity of these recombinant proteins was determined by their ability to phosphorylate a synthetic peptide (made up of a random co-polymer of Glutamic Acid, Alanine and Tyrosine in the ratio of 6:3:1). Specifically, Maxisorb™ 96-well immunoplates were coated with synthetic peptide (0.2 μg of peptide in a 200 μl phosphate buffered saline (PBS) solution and incubated at 4° C. overnight). Plates were washed in 50 mM HEPES pH 7.4 at room temperature to remove any excess unbound synthetic peptide. […] Reactions were terminated by the removal of the liquid components of the assay followed by washing of the plates with PBS-T (phosphate buffered saline with 0.5% Tween 20).
(§4) The immobilised phospho-peptide product of the reaction was detected by immunological methods. Firstly, plates were incubated for 90 minutes at room temperature with anti-phosphotyrosine primary antibodies that were raised in the mouse (4G10 from Upstate Biotechnology). Following extensive washing, plates were treated with Horseradish Peroxidase (HRP) conjugated sheep anti-mouse secondary antibody (NXA931 from Amersham) for 60 minutes at room temperature. After further washing, HRP activity in each well of the plate was measured colorimetrically using 22′-Azino-di-[3-ethylbenzthiazoline sulfonate (6)] diammonium salt crystals (ABTS™ from Roche) as a substrate.
(§5) Kinase inhibition for a given compound was expressed as an IC50 value. […] The range of phosphorylation was calculated from the positive (vehicle plus ATP) and negative (vehicle minus ATP) control values.

Assay [1] deals with T2, erbB2 (Homo sapiens, UniProt P04626). In words: Protein tyrosine kinase phosphorylation assay, Test (a): erbB2. To be noted: inhibition of phosphorylation of a tyrosine containing polypeptide substrate by erbB2 kinase; ATP at Km. The arrangement: Recombinant intracellular fragments of EGFR and erbB2; made in house; host or cells: baculovirus/Sf21 insect cells. The assay is classed as biochemical. On the procedure: as §1, §2, §3, §4, §5
Target sequence in this assay (P04626 676-1255 limits assumed): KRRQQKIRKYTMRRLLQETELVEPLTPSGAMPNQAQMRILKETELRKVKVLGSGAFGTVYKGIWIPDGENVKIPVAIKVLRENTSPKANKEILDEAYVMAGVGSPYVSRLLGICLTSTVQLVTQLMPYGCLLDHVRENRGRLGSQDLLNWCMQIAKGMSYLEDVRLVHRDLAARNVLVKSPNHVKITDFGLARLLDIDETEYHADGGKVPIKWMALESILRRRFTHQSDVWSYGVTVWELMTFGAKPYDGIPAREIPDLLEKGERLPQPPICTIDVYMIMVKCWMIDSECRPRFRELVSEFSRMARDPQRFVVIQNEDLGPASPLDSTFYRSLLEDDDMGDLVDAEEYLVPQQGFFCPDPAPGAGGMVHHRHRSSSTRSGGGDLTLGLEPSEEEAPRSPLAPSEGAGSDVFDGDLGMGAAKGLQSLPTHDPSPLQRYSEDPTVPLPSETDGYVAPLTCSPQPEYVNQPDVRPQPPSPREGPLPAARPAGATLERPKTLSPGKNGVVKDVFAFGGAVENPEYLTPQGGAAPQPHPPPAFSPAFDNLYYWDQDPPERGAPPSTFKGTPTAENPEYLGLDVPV

In assay [2] the target is T2, erbB2. In words: Clone 24 phospho-erbB2 cell assay, Test (e). The assay is classed as cell-based. Further details: a cell line that overexpresses full length wild type erbB2 protein; expressed in transfected cells; host or cells: MCF7 (breast carcinoma) derived Clone 24 cells. The note with it: inhibition of phosphorylation of erbB2 in a MCF7 (breast carcinoma) derived cell line (Clone 24). How it is done: The cells were resuspended in Growth Medium.
3 days later, Growth Medium was removed from the wells and replaced with 100 ul Assay Medium (phenol red free DM , 2 mM glutamine, 1.2 mg/ml G418) either with or without erbB inhibitor compound. Plates were returned to the incubator for 4 hours and then 20 μl of 20% formaldehyde solution in PBS was added to each well and the plate was left at room temperature for 30 minutes. This fixative solution was removed with a multichannel pipette, 100 μl of PBS was added to each well and then removed with a multichannel pipette and then 50 μl PBS was added to each well. Plates were then sealed and stored for up to 2 weeks at 4° C.
Immunostaining was performed at room temperature. Wells were washed once with 200 μl PBS/Tween 20 (made by adding 1 sachet of PBS/Tween dry powder (Sigma, No. P3563) to 1 L of double distilled H2O) using a plate washer then 200 μl Blocking Solution (5% Marvel dried skimmed milk (Nestle) in PBS/Tween 20) was added and incubated for 10 minutes. Blocking Solution was removed using a plate washer and 200 μl of 0.5% Triton X-100/PBS was added to permeabalise the cells. After 10 minutes, the plate was washed with 200μl PBS/Tween 20 and then 200 μl Blocking Solution was added once again and incubated for 15 minutes. […] Then this primary antibody solution was removed from the wells using a plate washer followed by two 200 μl PBS/Tween 20 washes using a plate washer. […] From now onwards, wherever possible, plates were protected from light exposure, at this stage by sealing with black backing tape. The plates were incubated for 45 minutes and then the secondary antibody solution was removed from the wells followed by two 200 ul PBS/Tween 20 washes using a plate washer. Then 100 μl PBS was added to each plate, incubated for 10 minutes and then removed using a plate washer. Then a further 100 μl PBS was added to each plate and then, without prolonged incubation, removed using a plate washer. Then 50 μl of PBS was added to each well and plates were resealed with black backing tape and stored for up to 2 days at 4° C. before analysis.
The Fluorescence signal is each well was measured using an Acumen Explorer Instrument (Acumen Bioscience Ltd.), a plate reader that can be used to rapidly quantitate features of images generated by laser-scanning. The instrument was set to measure the number of fluorescent objects above a pre-set threshold value and this provided a measure of the phosphorylation status of erbB2 protein. Fluorescence dose response data obtained with each compound was exported into a suitable software package (such as Origin) to perform curve fitting analysis. Inhibition of erbB2 phosphorylation was expressed as an IC50 value.
Target sequence in this assay (P04626 23-1255): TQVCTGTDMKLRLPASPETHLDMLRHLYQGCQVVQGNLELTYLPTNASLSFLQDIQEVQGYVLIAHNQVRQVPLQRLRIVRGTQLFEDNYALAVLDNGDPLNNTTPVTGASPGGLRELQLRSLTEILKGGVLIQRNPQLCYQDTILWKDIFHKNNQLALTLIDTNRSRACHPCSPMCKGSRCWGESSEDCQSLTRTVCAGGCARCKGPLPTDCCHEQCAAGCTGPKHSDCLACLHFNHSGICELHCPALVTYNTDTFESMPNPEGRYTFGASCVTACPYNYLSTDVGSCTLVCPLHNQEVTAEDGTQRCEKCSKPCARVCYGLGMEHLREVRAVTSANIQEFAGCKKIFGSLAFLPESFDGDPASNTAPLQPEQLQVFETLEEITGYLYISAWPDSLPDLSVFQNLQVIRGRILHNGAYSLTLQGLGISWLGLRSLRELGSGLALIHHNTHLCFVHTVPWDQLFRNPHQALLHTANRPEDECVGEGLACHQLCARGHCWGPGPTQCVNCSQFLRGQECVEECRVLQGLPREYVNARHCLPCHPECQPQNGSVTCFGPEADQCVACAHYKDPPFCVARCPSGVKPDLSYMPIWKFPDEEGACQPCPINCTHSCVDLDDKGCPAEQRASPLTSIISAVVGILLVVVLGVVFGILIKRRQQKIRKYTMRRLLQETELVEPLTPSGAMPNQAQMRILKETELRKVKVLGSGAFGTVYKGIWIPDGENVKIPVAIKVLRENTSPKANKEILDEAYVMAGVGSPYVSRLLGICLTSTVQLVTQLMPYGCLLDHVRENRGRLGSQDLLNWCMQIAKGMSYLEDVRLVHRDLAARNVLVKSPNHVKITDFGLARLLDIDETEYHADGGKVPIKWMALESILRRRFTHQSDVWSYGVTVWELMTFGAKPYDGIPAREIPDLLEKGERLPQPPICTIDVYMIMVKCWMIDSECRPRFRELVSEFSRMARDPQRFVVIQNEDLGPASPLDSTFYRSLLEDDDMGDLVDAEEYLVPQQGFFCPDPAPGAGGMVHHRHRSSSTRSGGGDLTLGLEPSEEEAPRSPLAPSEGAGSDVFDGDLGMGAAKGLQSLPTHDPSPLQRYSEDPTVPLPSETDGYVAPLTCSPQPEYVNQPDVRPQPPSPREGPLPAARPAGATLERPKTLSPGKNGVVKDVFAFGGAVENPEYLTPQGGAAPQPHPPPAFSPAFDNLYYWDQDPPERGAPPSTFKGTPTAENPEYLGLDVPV

Counter-ions that a name gives are not always drawn.

The record followed here is US20070149546A1, “4-Anilino-quinazoline derivatives as antiproliferative agents” (priority 2003, published 2007).

Broadly, the IC50 is the concentration that gives 50% inhibition.

T1 sequence (P00533 669-1210 limits assumed): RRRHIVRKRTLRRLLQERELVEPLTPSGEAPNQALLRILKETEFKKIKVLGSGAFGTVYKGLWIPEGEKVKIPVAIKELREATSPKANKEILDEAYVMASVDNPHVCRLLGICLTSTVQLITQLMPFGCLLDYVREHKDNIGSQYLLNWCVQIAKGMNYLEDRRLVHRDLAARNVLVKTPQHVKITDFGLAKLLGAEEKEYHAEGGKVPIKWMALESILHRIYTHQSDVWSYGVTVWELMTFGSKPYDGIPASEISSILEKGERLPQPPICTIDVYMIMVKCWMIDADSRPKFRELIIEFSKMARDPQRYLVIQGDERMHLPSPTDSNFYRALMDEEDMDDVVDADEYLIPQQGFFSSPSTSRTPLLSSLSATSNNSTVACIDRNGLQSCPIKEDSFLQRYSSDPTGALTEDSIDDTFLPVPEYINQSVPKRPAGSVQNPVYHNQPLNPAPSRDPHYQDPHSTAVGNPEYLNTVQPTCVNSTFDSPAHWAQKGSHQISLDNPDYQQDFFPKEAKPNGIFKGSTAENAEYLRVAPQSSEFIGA

Consider `C[C@H](CN(C)C)Oc1cccc2ncnc(Nc3ccc(Sc4nccn4C)c(Cl)c3)c12` [Example 53, N-{3-Chloro-4-[(1-methyl-1H-imidazol-2-yl)thio]phenyl}-5-[(1R)-2-(dimethylamino)-1-methylethoxy]quinazolin-4-amine dihydrochloride], for which the figures for the half-maximal inhibitory concentration (IC50) against EGFR kinase, on erbB2 [1] and against erbB2 [2] were 0.064 µM, 0.005 µM and 0.001 µM, respectively.
On to `CN(C)CC(C)(C)Oc1cccc2ncnc(Nc3ccc(OCc4ccccn4)c(Cl)c3)c12` [Example 56, N-[3-Chloro-4-(pyridin-2-ylmethoxy)phenyl]-5-[2-(dimethylamino)-1,1-dimethylethoxy]quinazolin-4-amine], for which the IC50 at EGFR kinase worked out at 0.49 µM; at erbB2 [1], 0.002 µM; against erbB2 [2], 0.002 µM.
In the case of `COc1cc(Nc2ncnc3cccc(OC(C)CN(C)C)c23)ccc1Oc1ccccc1` (stereo not drawn) [Example 54, 5-[2-(Dimethylamino)-1-methylethoxy]-N-(3-methoxy-4-phenoxyphenyl)quinazolin-4-amine], the IC50 was 4.3 µM on EGFR kinase, 0.002 µM at erbB2 [1] and 0.003 µM against erbB2 [2].
Turning to `C[C@H](CN(C)C)Oc1cccc2ncnc(Nc3ccc(OCc4cscn4)c(Cl)c3)c12` [Example 23], the 50% inhibitory concentration (IC50) at EGFR kinase turned out to be 0.068 µM; on erbB2 [1] it was 0.002 µM; against erbB2 [2] it was 0.001 µM.
On the same counts, the results for `COc1cc(Nc2ncnc3cccc(OCCN(C)C)c23)ccc1OCc1cc(C)on1` [Example 37, 5-[2-(Dimethylamino)ethoxy]-N-{3-methoxy-4-[(5-methylisoxazol-3-yl)methoxy]phenyl}quinazolin-4-amine] are 8.4 µM, 0.017 µM and 0.003 µM.
